In patent US20260274892A1, “MACROCYCLIC BROAD SPECTRUM ANTIBIOTICS” (RQx Pharmaceuticals, Inc., priority 2017, published 2026) one finds MIC data, which are given here for 13 compounds.

For assay [1], the system named is Methicillin Resistant Staphylococcus aureus strain USA 200. Kind of assay: Minimum inhibitory concentration (MIC), CLSI broth micro-dilution, S. aureus. The assay is classed as cell-based. The settings on record: Staphylococcus aureus, MRSA / USA200, MRSA USA 200, cation adjusted Mueller Hinton Broth + 0.002% Tween-80, 35° C., 22 hours. The procedure, abridged: (§1)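 Antibacterial potency is measured as MIC by the CLSI broth dilution method. Bacteria at OD600 0.0005 in Tween-80-supplemented cation-adjusted Mueller Hinton broth face ten twofold compound dilutions for 22 h at 35° C.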
A general note: Broth dilution looks for growth in wells or tubes with falling amounts of substance.

Assay [2] concerns Escherichia coli ATCC 25922. Kind of assay: Minimum inhibitory concentration (MIC), CLSI broth micro-dilution, E. coli. The assay is classed as cell-based. The conditions noted are these: Escherichia coli, ATCC25922, 22 h. The procedure, abridged: as §1
[3] abbreviates: Table 6, cation adjusted Mueller Hinton Broth + 0.002% Tween-80, 35° C.
The mark [4] stands for this setting: Table 8, cation adjusted Mueller Hinton Broth + 0.002% Tween-80, 35° C.

`Cc1nc(-c2ccc(C(C)(C)C)cc2)ncc1C(=O)N[C@@H](CCN)C(=O)N(C)[C@@H]1C(=O)N[C@@H](C)C(=O)N[C@H](C(=O)NCC#N)Cc2ccc(OCCN)c(c2)-c2cc1ccc2O` (racemic) [Compound 549, rac-(8S,11S,14S)-3-(2-aminoethoxy)-N-(cyanomethyl)-18-hydroxy-11-methyl-14-[methyl-[rac-(2S)-4-amino-2-[[2-(4-tert-butylphenyl)-4-methyl-pyrimidine-5-carbonyl]amino]butanoyl]amino]-10,13-dioxo-9,12-diazatricyclo[13.3.1.12,6]icosa-1(18),2(20),3,5,15(19),16-hexaene-8-carboxamide]: the figures for the MIC in assay [1] (Table 6) and in assay [2] (setting [3]) were 0.035 µM and 0.21 µM, respectively.
`Cc1nc(-c2ccc(OC(C)C)cc2)nc(C)c1C(=O)N[C@@H](CCN)C(=O)N(C)[C@@H]1C(=O)N[C@@H](C)C(=O)N[C@H](C(=O)NCC#N)Cc2ccc(O)c(c2)-c2cc1ccc2OCCN` (racemic) [Compound 552, rac-(8S,11S,14S)-18-(2-aminoethoxy)-N-(cyanomethyl)-3-hydroxy-11-methyl-14-[methyl-[rac-(2S)-4-amino-2-[[2-(4-isopropoxyphenyl)-4,6-dimethyl-pyrimidine-5-carbonyl]amino]butanoyl]amino]-10,13-dioxo-9,12-diazatricyclo[13.3.1.12,6]icosa-1(18),2(20),3,5,15(19),16-hexaene-8-carboxamide]: the MIC – broadly, the smallest concentration in the dilution series that meets the test's criterion for growth inhibition – amounted to 0.25 µM in assay [1] (Table 6) and 1.4 µM in assay [2] (setting [3]).
For the compound `Cc1nc(-c2ccc(C(C)(C)C)cc2)nc(C)c1C(=O)N[C@@H](CCN)C(=O)N(C)[C@@H]1C(=O)N[C@@H](C)C(=O)N[C@H](C(=O)NCC#N)Cc2ccc(OCCN)c(c2)-c2cc1ccc2O` (racemic) [Compound 553, rac-(8S,11S,14S)-3-(2-aminoethoxy)-N-(cyanomethyl)-18-hydroxy-11-methyl-14-[methyl-[rac-(2S)-4-amino-2-[[2-(4-tert-butylphenyl)-4,6-dimethyl-pyrimidine-5-carbonyl]amino]butanoyl]amino]-10,13-dioxo-9,12-diazatricyclo[13.3.1.12,6]icosa-1(18),2(20),3,5,15(19),16-hexaene-8-carboxamide], the MIC in assay [1] (Table 6) stood at 0.055 µM; in assay [2] (setting [3]), 0.21 µM.
Regarding `COc1ccc2cc1-c1cc(ccc1OCCN)C[C@@H](C(=O)NCC#N)NC(=O)[C@H](C)NC(=O)[C@H]2N(C)C(=O)[C@H](CCN)NC(=O)c1cnc(-c2ccc(C(C)(C)C)cc2)nc1C` (racemic) [Compound 558, rac-(8S,11S,14S)-3-(2-aminoethoxy)-N-(cyanomethyl)-18-methoxy-11-methyl-14-[methyl-[rac-(2S)-4-amino-2-[[2-(4-tert-butylphenyl)-4-methyl-pyrimidine-5-carbonyl]amino]butanoyl]amino]-10,13-dioxo-9,12-diazatricyclo[13.3.1.12,6]icosa-1(18),2(20),3,5,15(19),16-hexaene-8-carboxamide], the results for the MIC in assay [1] (Table 6) and in assay [2] (setting [3]) were 0.046 µM and 0.73 µM, respectively.
As for `CCCCCOc1ccc(-c2nc(C)c(C(=O)N[C@@H](CCN)C(=O)N(C)[C@@H]3C(=O)N[C@@H](C)C(=O)N[C@H](C(=O)O)Cc4ccc(OCCN)c(c4)-c4cc3ccc4OCCN)c(C)n2)cc1` (racemic) [Compound 638, rac-(8S,11S,14S)-3,18-bis(2-aminoethoxy)-11-methyl-14-[methyl-[rac-(2S)-4-amino-2-[[4,6-dimethyl-2-(4-pentoxyphenyl)pyrimidine-5-carbonyl]amino]butanoyl]amino]-10,13-dioxo-9,12-diazatricyclo [13.3.1.12,6]icosa-1(18),2(20),3,5,15(19), 16-hexaene-8-carboxylic acid], the MIC in assay [1] (Table 8) is 0.19 µM; in assay [2] (setting [4]), 0.22 µM.
For `CCC1(Oc2ccc(-c3nc(C)c(C(=O)N[C@@H](CCN)C(=O)N(C)[C@@H]4C(=O)N[C@@H](C)C(=O)N[C@H](C(=O)O)Cc5ccc(OCCN)c(c5)-c5cc4ccc5OCCN)c(C)n3)cc2)CC1` (racemic) [Compound 639, rac-(8S,11S,14S)-3,18-bis(2-aminoethoxy)-11-methyl-14-[methyl-[rac-(2S)-4-amino-2-[[2-[4-(1-ethylcyclopropoxy)phenyl]-4,6-dimethyl-pyrimidine-5-carbonyl]amino]butanoyl]amino]-10,13-dioxo-9,12-diazatricyclo [13.3.1.12,6]icosa-1(18),2(20),3,5,15(19), 16-hexaene-8-carboxylic acid], the MIC in assay [1] (Table 8) is 0.75 µM; in assay [2] (setting [4]), 0.38 µM.
For `CCCCCCOc1ccc(-c2nc(C)c(C(=O)N[C@@H](CCN)C(=O)N(C)[C@@H]3C(=O)N[C@@H](C)C(=O)N[C@H](C(=O)O)Cc4ccc(OCCN)c(c4)-c4cc3ccc4OCCN)c(C)n2)cc1` (racemic) [Compound 641, rac-(8S,11S,14S)-3,18-bis(2-aminoethoxy)-11-methyl-14-[methyl-[rac-(2S)-4-amino-2-[[2-(4-hexoxyphenyl)-4,6-dimethyl-pyrimidine-5-carbonyl]amino]butanoyl]amino]-10,13-dioxo-9,12-diazatricyclo [13.3.1.12,6]icosa-1(18),2(20),3,5,15(19), 16-hexaene-8-carboxylic acid] the same measures were 0.047 µM and 0.094 µM.
The corresponding values for `CCCCCOc1ccc(-c2nc(C)c(C(=O)N[C@@H](CCN)C(=O)N(C)[C@@H]3C(=O)N[C@@H](C)C(=O)N[C@H](C(=O)O)Cc4ccc(OCCN)c(c4)-c4cc3ccc4O)c(C)n2)cc1` (racemic) [Compound 642, rac-(8S,11S,14S)-3-(2-aminoethoxy)-18-hydroxy-11-methyl-14-[methyl-[rac-(2S)-4-amino-2-[[4,6-dimethyl-2-(4-pentoxyphenyl)pyrimidine-5-carbonyl]amino]butanoyl]amino]-10,13-dioxo-9,12-diazatricyclo [13.3.1.12,6]icosa-1(18),2(20),3,5,15(19), 16-hexaene-8-carboxylic acid] are 0.21 µM and 0.23 µM.
For `Cc1nc(-c2ccc(OC(C)C)cc2)nc(C)c1C(=O)N[C@@H](CCN)C(=O)N(C)[C@@H]1C(=O)N[C@@H](C)C(=O)N[C@H](C(=O)O)Cc2ccc(O)c(c2)-c2cc1ccc2OCCN` (racemic) [Compound 643, rac-(8S,11S,14S)-18-(2-aminoethoxy)-3-hydroxy-11-methyl-14-[methyl-[rac-(2S)-4-amino-2-[[2-(4-isopropoxyphenyl)-4,6-dimethyl-pyrimidine-5-carbonyl]amino]butanoyl]amino]-10,13-dioxo-9,12-diazatricyclo [13.3.1.12,6]icosa-1(18),2(20),3,5,15(19), 16-hexaene-8-carboxylic acid] the same measures were 1.1 µM and 2.3 µM.
As for `Cc1cc(-c2ccc(C(C)(C)C)cc2)nc(C)c1C(=O)N[C@@H](CCN)C(=O)N(C)[C@@H]1C(=O)N[C@@H](C)C(=O)N[C@H](C(=O)O)Cc2ccc(O)c(c2)-c2cc1ccc2OCCN` (racemic) [Compound 644, rac-(8S,11S,14S)-18-(2-aminoethoxy)-3-hydroxy-11-methyl-14-[methyl-[rac-(2S)-4-amino-2-[[6-(4-tert-butylphenyl)-2,4-dimethyl-pyridine-3-carbonyl]amino]butanoyl]amino]-10,13-dioxo-9,12-diazatricyclo [13.3.1.12,6]icosa-1(18),2(20),3,5,15(19), 16-hexaene-8-carboxylic acid], the figures for the MIC in assay [1] (Table 8) and in assay [2] (setting [4]) were 1.2 µM and 0.58 µM, respectively.
For the compound `Cc1nc(-c2ccc(C(C)(C)C)cc2)nc(C)c1C(=O)N[C@@H](CCN)C(=O)N(C)[C@@H]1C(=O)N[C@@H](C)C(=O)N[C@H](C(=O)O)Cc2ccc(OCCN)c(c2)-c2cc1ccc2OCCN` (racemic) [Compound 645, rac-(8S,11S,14S)-3,18-bis(2-aminoethoxy)-11-methyl-14-[methyl-[rac-(2S)-4-amino-2-[[2-(4-tert-butylphenyl)-4,6-dimethyl-pyrimidine-5-carbonyl]amino]butanoyl]amino]-10,13-dioxo-9,12-diazatricyclo [13.3.1.12,6]icosa-1(18),2(20),3,5,15(19), 16-hexaene-8-carboxylic acid], the MIC in assay [1] (Table 8) turned out to be 0.52 µM; in assay [2] (setting [4]), 0.4 µM.
For `Cc1nc(-c2ccc(C(C)(C)C)cc2)nc(C)c1C(=O)N[C@@H](CCN)C(=O)N(C)[C@@H]1C(=O)N[C@@H](C)C(=O)N[C@H](C(=O)O)Cc2ccc(O)c(c2)-c2cc1ccc2OCCN` (racemic) [Compound 646, rac-(8S,11S,14S)-18-(2-aminoethoxy)-3-hydroxy-11-methyl-14-[methyl-[rac-(2S)-4-amino-2-[[2-(4-tert-butylphenyl)-4,6-dimethyl-pyrimidine-5-carbonyl]amino]butanoyl]amino]-10,13-dioxo-9,12-diazatricyclo [13.3.1.12,6]icosa-1(18),2(20),3,5,15(19), 16-hexaene-8-carboxylic acid] the same measures were 1.1 µM and 0.37 µM.
Turning to `Cc1nc(-c2ccc3c(c2)CCC3(C)C)nc(C)c1C(=O)N[C@@H](CCN)C(=O)N(C)[C@@H]1C(=O)N[C@@H](C)C(=O)N[C@H](C(=O)O)Cc2ccc(OCCN)c(c2)-c2cc1ccc2OCCN` (racemic) [Compound 647, rac-(8S,11S,14S)-3,18-bis(2-aminoethoxy)-11-methyl-14-[methyl-[rac-(2S)-4-amino-2-[[2-(1,1-dimethylindan-5-yl)-4,6-dimethyl-pyrimidine-5-carbonyl]amino]butanoyl]amino]-10,13-dioxo-9,12-diazatricyclo [13.3.1.12,6]icosa-1(18),2(20),3,5,15(19), 16-hexaene-8-carboxylic acid], the MIC turned out to be 0.19 µM in assay [1] (Table 8) and 0.25 µM in assay [2] (setting [4]).
